The results in this text go back to patent publication US20240309005A1 (priority 2021, published 2024).

Converted amounts (≈) assume the structure as drawn. Structures can show the parent of a compound that is named as a salt.

Data set [1] is described as follows: in vivo. The settings on record: male, CD1, mouse; for Cmax / bioavailability: po, 30 mg/kg.
Data set [2] can be described thus: in vivo. The settings on record: male, SD, rat; for bioavailability / Cmax: po, 30 mg/kg; for Cmax: Cmax (ng/ml).
Data set [3] can be described thus: physchem. The note with it: 25 °C, kinetic from dmso stock.

In data set [1], `Cc1n[nH]c2nc(-c3ccc(NS(=O)(=O)c4cc(Cl)ccc4F)cc3)nc(O[C@@H]3CCN(CCO)C[C@@H]3F)c12` [Compound 50, 5-chloro-2-fluoro-N-[4-(4-{[(3S,4R)-3-fluoro-1-(2-hydroxyethyl)piperidin-4-yl]oxy}-3-methyl-1H-pyrazolo[3,4-d]pyrimidin-6-yl)phenyl]benzenesulfonamide] had a half-life of 3.2 h and a Cmax of 54.9 ng/mL.
For `COc1cc(-c2nc(NCCN(C)C)c3c(C)n[nH]c3n2)ccc1NS(=O)(=O)c1cc(F)ccc1F` [Compound 96, N-[4-(4-{[2-(dimethylamino)ethyl]amino}-3-methyl-1H-pyrazolo[3,4-d]pyrimidin-6-yl)-2-methoxyphenyl]-2,5-difluorobenzenesulfonamide], in data set [2], the half-life is 3.3 h, the bioavailability came to 24% and the peak level (Cmax) was 267 ng/mL.
In data set [2], `Cc1n[nH]c2nc(-c3ccc(NS(=O)(=O)c4cc(OC(C)C)ccn4)c(Cl)c3)nc(NCCN(C)C)c12` [Compound 100, N-[2-chloro-4-(4-{[2-(dimethylamino)ethyl]amino}-3-methyl-1H-pyrazolo[3,4-d]pyrimidin-6-yl)phenyl]-4-isopropoxypyridine-2-sulfonamide] gave a half-life of 3.8 h, a bioavailability of 39.5% and a Cmax of 2480 ng/mL.
Turning to `Cc1n[nH]c2nc(-c3ccc(NS(=O)(=O)c4cc(OC(C)C)ccn4)cc3)nc(NCCN(C)C)c12` [Compound 73, N-[4-(4-{[2-(dimethylamino)ethyl]amino}-3-methyl-1H-pyrazolo[3,4-d]pyrimidin-6-yl)phenyl]-4-isopropoxypyridine-2-sulfonamide], in data set [1], the half-life was 1.5 h and the Cmax is 143 ng/mL. The concentration in solution in data set [3] (pH 5, fessif) (solubility at 2 h) was 311 µM (≈ 159 µg/mL). Also, the solubility at 2 h in data set [3] (pH 7.4, aqueous buffer) amounted to 265 µM (≈ 135 µg/mL).
`Cc1n[nH]c2nc(-c3ccc(NS(=O)(=O)c4cc(Cl)ccc4F)cc3)nc(NCCN(C)C=O)c12` [Compound 18, N-[2-([6-[4-(5-chloro-2-fluorobenzenesulfonamide)phenyl]-3-methyl-1H-pyrazolo[3,4-d]pyrimidin-4-yl]amino)ethyl]-N-methylformamide] gave a Cmax in data set [1] of 2.3 ng/mL. The molecule also had a bioavailability in data set [1] of 0.5%. Also, the solubility at 2 h stood at 268 µM (≈ 139 µg/mL) in data set [3] (pH 5, fessif) and 52 µM (≈ 26.9 µg/mL) in data set [3] (pH 7.4, aqueous buffer).
With `CCC(=O)OCCN(C)CCNc1nc(-c2ccc(NS(=O)(=O)c3cc(Cl)ccc3F)cc2)nc2[nH]nc(C)c12` [Compound 90, 2-{[2-({6-[4-(5-chloro-2-fluorobenzenesulfonamido)phenyl]-3-methyl-1H-pyrazolo[3,4-d]pyrimidin-4-yl}amino)ethyl](methyl)amino}ethyl propanoate; bis(trifluoroacetic acid)], in data set [1], the half-life was 2.4 h, the peak level (Cmax) was 523 ng/mL and the bioavailability is 5.5%.
In data set [1], `Cc1n[nH]c2nc(-c3ccc(NS(=O)(=O)c4cc(Cl)ccc4F)c(F)c3)nc(NCCN(C)C)c12` [Compound 38, 5-chloro-N-(4-(4-((2-(dimethylamino)ethyl)amino)-3-methyl-1H-pyrazolo[3,4-d]pyrimidin-6-yl)-2-fluorophenyl)-2-fluorobenzenesulfonamide] gave a half-life of 2.2 h, a Cmax of 2340 ng/mL and a bioavailability of 41%. Further, the concentration in solution in data set [3] (pH 5, fessif) (solubility at 2 h) came to 298 µM (≈ 156 µg/mL). The molecule further displayed a solubility at 2 h in data set [3] (pH 7.4, aqueous buffer) of 15.9 µM (≈ 8.3 µg/mL).
In data set [1], `COc1ccc(F)c(S(=O)(=O)Nc2ccc(-c3nc(NCCN(C)CCO)c4c(C)n[nH]c4n3)cc2)c1` [Compound 77, 2-fluoro-N-{4-[4-({2-[(2-hydroxyethyl)(methyl)amino]ethyl}amino)-3-methyl-1H-pyrazolo[3,4-d]pyrimidin-6-yl]phenyl}-5-methoxybenzenesulfonamide] had a half-life of 2.2 h, a peak concentration (Cmax) of 16.8 ng/mL and a bioavailability of 0.75%.
Turning to `CCCC(=O)OCCN(C)CCNc1nc(-c2ccc(NS(=O)(=O)c3cc(Cl)ccc3F)cc2)nc2[nH]nc(C)c12` [Compound 91, 2-{[2-({6-[4-(5-chloro-2-fluorobenzenesulfonamido)phenyl]-3-methyl-1H-pyrazolo[3,4-d]pyrimidin-4-yl}amino)ethyl](methyl)amino}ethyl butanoate trifluoroacetic acid], in data set [1], the half-life was 4.5 h, the Cmax was found to be 319 ng/mL and the bioavailability amounted to 2.2%.
In data set [2], `Cc1n[nH]c2nc(-c3ccc(NS(=O)(=O)c4cc(F)ccc4F)c(Cl)c3)nc(O[C@@H]3CCNC[C@@H]3F)c12` [Compound 156, N-[2-chloro-4-(4-{[(3S,4R)-3-fluoropiperidin-4-yl]oxy}-3-methyl-1H-pyrazolo[3,4-d]pyrimidin-6-yl)phenyl]-2,5-difluorobenzenesulfonamide hydrochloride] had a half-life of 5.2 h, a bioavailability of 12% and a peak concentration (Cmax) of 548 ng/mL.
Regarding `Cc1n[nH]c2nc(-c3ccc(NS(=O)(=O)c4cc(Cl)ccc4F)cc3)nc(NCCN(C)CCOC(=O)CC(C)C)c12` [Compound 83, 2-{[2-({6-[4-(5-chloro-2-fluorobenzenesulfonamido)phenyl]-3-methyl-1H-pyrazolo[3,4-d]pyrimidin-4-yl}amino)ethyl](methyl)amino}ethyl 3-methylbutanoate], in data set [1], the half-life is 2.4 h, the Cmax worked out at 788 ng/mL and the bioavailability worked out at 4.9%.
Regarding `Cc1n[nH]c2nc(-c3ccc(NS(=O)(=O)c4cc(F)ccc4F)c(F)c3)nc(O[C@@H]3CCNC[C@@H]3F)c12` [Compound 155], in data set [2], the half-life is 7.5 h, the bioavailability stood at 5.3% and the Cmax turned out to be 283 ng/mL.
Turning to `Cc1n[nH]c2nc(-c3ccc(NS(=O)(=O)c4cc(Cl)ccc4F)cc3)nc(NCCN(C)CCOC(=O)C(C)(C)C)c12` [Compound 82, 2-{[2-({6-[4-(5-chloro-2-fluorobenzenesulfonamido)phenyl]-3-methyl-1H-pyrazolo[3,4-d]pyrimidin-4-yl}amino)ethyl](methyl)amino}ethyl 2,2-dimethylpropanoate], in data set [1], the half-life is 1.7 h, the peak level (Cmax) was 607 ng/mL and the bioavailability worked out at 4.5%.
In data set [1], `Cc1n[nH]c2nc(-c3ccc(NS(=O)(=O)c4cc(C(F)(F)F)ccn4)cc3)nc(NCCN(C)C)c12` [Compound 30, N-(4-(4-((2-(dimethylamino)ethyl)amino)-3-methyl-1H-pyrazolo[3,4-d]pyrimidin-6-yl)phenyl)-4-(trifluoromethyl)pyridine-2-sulfonamide] showed a half-life of 4.4 h, a Cmax of 548 ng/mL and a bioavailability of 18.8%. In data set [3] (pH 5, fessif), this molecule registered a solubility at 2 h of 276 µM (≈ 144 µg/mL). The solubility at 2 h in data set [3] (pH 7.4, aqueous buffer) stood at 295 µM (≈ 154 µg/mL).
In data set [1], `CC(=O)OCCN(C)CCNc1nc(-c2ccc(NS(=O)(=O)c3cc(Cl)ccc3F)cc2)nc2[nH]nc(C)c12` [Compound 87, 2-[[2-([6-[4-(5-chloro-2-fluorobenzenesulfonamido)phenyl]-3-methyl-1H-pyrazolo[3,4-d]pyrimidin-4-yl]amino)ethyl](methyl)amino]ethyl acetate] gave a half-life of 2 h, a Cmax of 1020 ng/mL and a bioavailability of 7.5%. In addition, the solubility at 2 h in data set [3] (pH 5, fessif) came out at 290 µM. The molecule also came in with a solubility at 2 h in data set [3] (pH 7.4, aqueous buffer) of 0.6 µM.
Turning to `Cc1n[nH]c2nc(-c3ccc(NS(=O)(=O)c4cc(Cl)ccc4F)cc3)nc(NCCN(C)CCOC(=O)C(C)C)c12` [Compound 89, 2-{[2-({6-[4-(5-chloro-2-fluorobenzenesulfonamido)phenyl]-3-methyl-1H-pyrazolo[3,4-d]pyrimidin-4-yl}amino)ethyl](methyl)amino}ethyl 2-methylpropanoate trifluoroacetic acid], in data set [1], the half-life was 1.2 h, the highest level (Cmax) was 1740 ng/mL and the bioavailability was found to be 11%.
As to `Cc1n[nH]c2nc(-c3ccc(NS(=O)(=O)c4cc(Cl)ccc4F)cc3)nc(O[C@H]3CCNC[C@H]3F)c12` [Compound 46, 5-chloro-2-fluoro-N-(4-(4-(((3R,4S)-3-fluoropiperidin-4-yl)oxy)-3-methyl-1H-pyrazolo[3,4-d]pyrimidin-6-yl)phenyl)benzenesulfonamide], the solubility at 2 h in data set [3] (pH 5, fessif) was 174 µM (≈ 93.1 µg/mL); in data set [3] (pH 7.4, aqueous buffer), 0.7 µM (≈ 0.374 µg/mL).
Turning to `[2H]C([2H])([2H])N1CC[C@@H](Oc2nc(-c3ccc(NS(=O)(=O)c4cc(Cl)ccc4F)cc3)nc3[nH]nc(C)c23)[C@@H](F)C1` [Compound 65, 5-chloro-2-fluoro-N-(4-(4-(((3S,4R)-3-fluoro-1-(methyl-d3)piperidin-4-yl)oxy)-3-methyl-1H-pyrazolo[3,4-d]pyrimidin-6-yl)phenyl)benzenesulfonamide], the solubility at 2 h in data set [3] (pH 5, fessif) stood at 210 µM (≈ 116 µg/mL); in data set [3] (pH 7.4, aqueous buffer), 0.73 µM (≈ 0.403 µg/mL).
In the case of `Cc1n[nH]c2nc(-c3ccc(NS(=O)(=O)c4cc(Cl)ccc4F)cc3)nc(OC3CCNCC3)c12` [Compound 55, 5-chloro-2-fluoro-N-{4-[3-methyl-4-(piperidin-4-yloxy)-1H-pyrazolo[3,4-d]pyrimidin-6-yl]phenyl}benzenesulfonamide], the solubility at 2 h came out at 244 µM (≈ 126 µg/mL) in data set [3] (pH 5, fessif) and 1.37 µM (≈ 0.708 µg/mL) in data set [3] (pH 7.4, aqueous buffer).
In data set [1], `Cc1n[nH]c2nc(-c3ccc(NS(=O)(=O)c4cc(Cl)ccc4F)cc3)nc(NCCN(C)CCOP(=O)(O)O)c12` [Compound 88, 2-{[2-({6-[4-(5-chloro-2-fluorobenzenesulfonamido)phenyl]-3-methyl-1H-pyrazolo[3,4-d]pyrimidin-4-yl}amino)ethyl](methyl)amino}ethoxyphosphonic acid] showed a half-life of 4.3 h, a Cmax of 14.5 ng/mL and a bioavailability of 1.6%.
`Cc1n[nH]c2nc(-c3ccc(NS(=O)(=O)c4cc(Cl)ccc4F)c(Cl)c3)nc(OC3CCN(C)CC3)c12` [Compound 101, 5-chloro-N-(2-chloro-4-{3-methyl-4-[(1-methylpiperidin-4-yl)oxy]-1H-pyrazolo[3,4-d]pyrimidin-6-yl}phenyl)-2-fluorobenzenesulfonamide]: in data set [2], the half-life is 3.8 h, the bioavailability is 75% and the Cmax worked out at 8120 ng/mL.

A word on the half-life: it is how long it takes for the measured level to halve. A lower half-life goes with fast loss. For orientation: Cmax means the peak of the concentration-time curve. One may read the bioavailability as dose-corrected exposure relative to a reference, in per cent. Lower therefore signals little systemic uptake. For orientation: solubility means the concentration that dissolves in the medium under given conditions. The low end stands for little dissolved substance, the high end for much dissolved substance.
